The term Km denotes the substrate concentration at which the rate is half of its maximum.

Results on two molecules are retold here after publication PMC5651824, “Membrane binding of the insertion sequence of Proteus vulgaris L-amino acid deaminase stabilizes protein structure and increases catalytic activity” (Scientific Reports, 2017).

Data set [1] addresses T1, ΔN-pvLAAD (Proteus vulgaris, UniProt Q9LCB2).
T1 construct: gene LAD; N-terminal Tat peptide truncated, residues 30-471; recombinant in E. coli M15, Ni-NTA (His tag) and size exclusion
T1 sequence (Q9LCB2 30-471): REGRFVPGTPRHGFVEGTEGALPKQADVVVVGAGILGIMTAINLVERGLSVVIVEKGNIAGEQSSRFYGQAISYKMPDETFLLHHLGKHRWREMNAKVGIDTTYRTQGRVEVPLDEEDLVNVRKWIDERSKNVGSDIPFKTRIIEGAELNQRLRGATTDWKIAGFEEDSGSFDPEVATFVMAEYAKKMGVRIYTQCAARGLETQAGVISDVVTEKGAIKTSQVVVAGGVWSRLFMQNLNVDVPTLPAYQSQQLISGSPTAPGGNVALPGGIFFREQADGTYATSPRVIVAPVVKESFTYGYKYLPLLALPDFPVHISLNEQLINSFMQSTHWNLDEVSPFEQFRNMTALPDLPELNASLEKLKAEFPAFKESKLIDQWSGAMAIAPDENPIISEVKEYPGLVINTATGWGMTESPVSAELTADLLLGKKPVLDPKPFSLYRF
As to the kind of experiment: phenylpyruvate formation, absorbance at […] nm. The note with it: without membrane; 25 mM substrate; 50 mM potassium phosphate pH 7.5; 25 °C; 10 µM enzyme. The data set is classed as biochemical.

Substrate in data set [2]: N[C@@H](Cc1ccccc1)C(=O)O
Briefly: purified protein. The data set is classed as biochemical, Proteus vulgaris. The settings on record: without membrane, 50 mM potassium phosphate pH 7.5, 37 °C, 5 µM enzyme, 5 min.

Turning to `N[C@@H](Cc1ccccc1)C(=O)O` [L-phenylalanine], the “phenylpyruvate formation, absorbance at 321 nm” value in data set [1] is reported as “does not affect the catalytic activity of pvLAAD in solution”.

B1: FL-pvLAAD (Proteus vulgaris) (protein)
chain: MAISRRKFIIGGTVVAVAAGAGILTPMLTREGRFVPGTPRHGFVEGTEGALPKQADVVVVGAGILGIMTAINLVERGLSVVIVEKGNIAGEQSSRFYGQAISYKMPDETFLLHHLGKHRWREMNAKVGIDTTYRTQGRVEVPLDEEDLVNVRKWIDERSKNVGSDIPFKTRIIEGAELNQRLRGATTDWKIAGFEEDSGSFDPEVATFVMAEYAKKMGVRIYTQCAARGLETQAGVISDVVTEKGAIKTSQVVVAGGVWSRLFMQNLNVDVPTLPAYQSQQLISGSPTAPGGNVALPGGIFFREQADGTYATSPRVIVAPVVKESFTYGYKYLPLLALPDFPVHISLNEQLINSFMQSTHWNLDEVSPFEQFRNMTALPDLPELNASLEKLKAEFPAFKESKLIDQWSGAMAIAPDENPIISEVKEYPGLVINTATGWGMTESPVSAELTADLLLGKKPVLDPKPFSLYRF
notes: full-length with non-cleaved N-terminal Tat peptide (ends at residue 471); recombinant in E. coli M15, Ni-NTA (His tag) and size exclusion
As to B1, in data set [2], the Km turned out to be 12.56 ± 3.19 mM.
